From patent US8436159B2, “Glyphosate resistant class I 5-endolpyruvylshikimate-3-phosphate synthase (EPSPS)” (Monsanto Technology LLC, priority 2003, dated 2013)

Biological target: T1, maize (Zea mays) class I EPSPS, wild type (WT), pMON70461, DNA SEQ ID NO:3 (Zea mays, UniProt O24566)
T1 construct: pMON70461
T1 sequence (O24566 with tags, fused parts or gaps): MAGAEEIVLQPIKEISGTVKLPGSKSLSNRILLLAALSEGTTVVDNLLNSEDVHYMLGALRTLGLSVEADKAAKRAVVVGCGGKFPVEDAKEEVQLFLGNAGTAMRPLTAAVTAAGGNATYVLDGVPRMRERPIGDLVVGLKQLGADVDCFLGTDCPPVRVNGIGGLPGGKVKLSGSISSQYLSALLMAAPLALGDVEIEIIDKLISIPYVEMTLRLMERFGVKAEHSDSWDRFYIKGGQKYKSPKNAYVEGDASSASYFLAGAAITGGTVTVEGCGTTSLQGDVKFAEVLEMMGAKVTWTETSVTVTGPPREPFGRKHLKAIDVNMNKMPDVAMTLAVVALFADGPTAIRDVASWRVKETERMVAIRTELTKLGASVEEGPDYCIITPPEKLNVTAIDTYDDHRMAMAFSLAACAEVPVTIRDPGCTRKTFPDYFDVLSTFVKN
Experiment: EPSPS steady-state kinetics, wild-type maize EPSPS
Assay type: biochemical
Procedure: The wild type and variant EPSPS coding sequences were cloned into a pET-19b base vector (Novagen, Madison, Wis.). The plant (maize) class I EPSPS variants so created were assigned pMON plasmid numbers (Table 2). The variant EPSPS proteins were purified from the E. coli host using the protocols outlined in the pET system manual, 9th edition (Novagen) or by the following method. A single colony or a few microliters from a glycerol stock was inoculated into 4 mL LB medium containing 0.1 mg/mL carbenicillin antibiotic. The culture was incubated with shaking at 37 C for 4 hours. The cultures were stored at 4° C. overnight. The following morning, 1 mL of the overnight culture was used to inoculate 100 mL of fresh LB medium containing 0.1 mg/mL carbenicillin. The cultures were incubated with shaking at 37 C for 4-5 hours, then the cultures were placed at 4° C. for 5-10 minutes. The cultures were then induced with IPTG (1 mM final concentration) and incubated with shaking at 30 C for 4 hours or 20° C. overnight. The cells were harvested by centrifugation at 7000 rpm for 20 minutes at 4° C. The supernatant was removed and the cells were frozen at −70° C. until further use. The proteins were extracted by resuspending the cell pellet in BugBuster reagent (Novagen) using 5 mL reagent per gram of cells. Benzonase (125 Units) was added to the resuspension and the cell suspension was then incubated on a rotating mixer for 20 minutes at room temperature. The cell debris was removed by centrifugation at 10,000 rpm for 20 minutes at room temperature. The supernatant was passed through a 0.45 μm syringe-end filter and transferred to a fresh tube. A pre-packed columns containing 1.25 mL of His-Bind resin was equilibrated with 10 mL of 5 mM imidazole, 0.5 M NaCl, 20 mM Tris-HCl pH 7.9 (1× Binding Buffer). The column was then loaded with the prepared cell extract. After the cell extract had drained, the column was then washed with 10 mL of 1× Binding Buffer, followed with 10 mL of 60 mM imidazole, 0.5 M NaCl, 20 mM Tris-HCl pH 7.9 (1× Wash Buffer). […]

O=C(O)CNCP(=O)(O)O [glyphosate, N-phosphonomethylglycine]
Ki: 500 ± 60 nM
